Assays:
[1] = molecular target: Platelet-derived growth factor receptor alpha (Homo sapiens) (UniProt P16234); experiment: Inhibition of PDGFRalpha assessed as activity remaining at 10 uM
[2] = molecular target: T1, Calcium/calmodulin-dependent protein kinase type IV (Homo sapiens) (UniProt Q16566); experiment: Inhibition of CaMK4 assessed as activity remaining at 10 uM
T1 sequence (whole entry): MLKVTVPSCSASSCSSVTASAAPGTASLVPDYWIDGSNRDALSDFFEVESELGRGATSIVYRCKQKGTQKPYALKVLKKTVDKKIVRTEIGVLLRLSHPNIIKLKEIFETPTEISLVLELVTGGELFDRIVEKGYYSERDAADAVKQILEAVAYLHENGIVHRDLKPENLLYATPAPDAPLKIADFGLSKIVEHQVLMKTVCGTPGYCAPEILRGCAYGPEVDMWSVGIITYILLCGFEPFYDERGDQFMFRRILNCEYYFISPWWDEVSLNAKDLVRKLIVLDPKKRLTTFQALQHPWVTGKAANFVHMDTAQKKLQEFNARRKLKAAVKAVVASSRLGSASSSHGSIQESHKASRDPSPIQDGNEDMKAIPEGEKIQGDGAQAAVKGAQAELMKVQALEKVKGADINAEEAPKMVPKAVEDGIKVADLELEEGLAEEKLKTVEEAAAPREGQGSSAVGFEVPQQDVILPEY

[3] = molecular target: T2, Ephrin type-B receptor 4 (Homo sapiens) (UniProt P54760); experiment: Inhibition of EphB4 assessed as activity remaining at 10 uM
T2 sequence (whole entry): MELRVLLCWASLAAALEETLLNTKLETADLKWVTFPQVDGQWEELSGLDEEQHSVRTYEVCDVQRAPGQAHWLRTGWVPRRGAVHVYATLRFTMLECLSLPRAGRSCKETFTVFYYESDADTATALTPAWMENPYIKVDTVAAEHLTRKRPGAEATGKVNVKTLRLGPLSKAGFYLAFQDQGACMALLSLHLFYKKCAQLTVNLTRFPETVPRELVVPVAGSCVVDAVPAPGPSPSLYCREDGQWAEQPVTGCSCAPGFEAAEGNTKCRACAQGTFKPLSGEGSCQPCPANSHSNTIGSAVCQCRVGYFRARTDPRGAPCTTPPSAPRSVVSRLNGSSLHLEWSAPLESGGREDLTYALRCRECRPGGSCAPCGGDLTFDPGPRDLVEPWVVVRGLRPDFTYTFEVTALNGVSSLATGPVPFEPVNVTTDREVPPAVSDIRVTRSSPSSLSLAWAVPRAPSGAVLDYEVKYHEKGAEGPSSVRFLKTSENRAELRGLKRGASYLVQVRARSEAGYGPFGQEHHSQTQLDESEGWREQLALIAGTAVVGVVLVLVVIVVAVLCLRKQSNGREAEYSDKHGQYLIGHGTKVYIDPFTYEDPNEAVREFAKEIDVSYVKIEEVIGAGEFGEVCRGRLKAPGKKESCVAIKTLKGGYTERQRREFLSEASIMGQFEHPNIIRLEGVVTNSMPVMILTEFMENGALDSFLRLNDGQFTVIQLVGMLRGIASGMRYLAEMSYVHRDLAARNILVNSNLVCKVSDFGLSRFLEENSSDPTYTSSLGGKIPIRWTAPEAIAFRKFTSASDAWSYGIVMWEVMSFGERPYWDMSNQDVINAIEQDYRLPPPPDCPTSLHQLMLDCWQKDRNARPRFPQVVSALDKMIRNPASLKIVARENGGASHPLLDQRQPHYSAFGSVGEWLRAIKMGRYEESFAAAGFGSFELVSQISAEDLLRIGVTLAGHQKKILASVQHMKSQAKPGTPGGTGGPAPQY

[4] = molecular target: Serine/threonine-protein kinase mTOR (Homo sapiens, UniProt P42345); experiment: Inhibition of mTOR
[5] = Inhibition of AMPK assessed as activity remaining at 10 uM
[6] = molecular target: Proto-oncogene tyrosine-protein kinase Src (Homo sapiens) (UniProt P12931); experiment: Inhibition of cSRC assessed as activity remaining at 10 uM
[7] = molecular target: Rho-associated protein kinase 1 (Homo sapiens) (UniProt Q13464); experiment: Inhibition of ROCK1 assessed as activity remaining at 10 uM
[8] = molecular target: Cyclin-dependent kinase 2 (Homo sapiens) (UniProt P24941); experiment: Inhibition of CDK2 assessed as activity remaining at 10 uM
[9] = molecular target: Mitogen-activated protein kinase 1 (Homo sapiens) (UniProt P28482); experiment: Inhibition of MAPK1 assessed as activity remaining at 10 uM
[10] = Inhibition of CK2 assessed as activity remaining at 10 uM
[11] = molecular target: T3, Tyrosine-protein kinase ITK/TSK (Homo sapiens) (UniProt Q08881); experiment: Inhibition of Itk assessed as activity remaining at 10 uM
T3 sequence (whole entry): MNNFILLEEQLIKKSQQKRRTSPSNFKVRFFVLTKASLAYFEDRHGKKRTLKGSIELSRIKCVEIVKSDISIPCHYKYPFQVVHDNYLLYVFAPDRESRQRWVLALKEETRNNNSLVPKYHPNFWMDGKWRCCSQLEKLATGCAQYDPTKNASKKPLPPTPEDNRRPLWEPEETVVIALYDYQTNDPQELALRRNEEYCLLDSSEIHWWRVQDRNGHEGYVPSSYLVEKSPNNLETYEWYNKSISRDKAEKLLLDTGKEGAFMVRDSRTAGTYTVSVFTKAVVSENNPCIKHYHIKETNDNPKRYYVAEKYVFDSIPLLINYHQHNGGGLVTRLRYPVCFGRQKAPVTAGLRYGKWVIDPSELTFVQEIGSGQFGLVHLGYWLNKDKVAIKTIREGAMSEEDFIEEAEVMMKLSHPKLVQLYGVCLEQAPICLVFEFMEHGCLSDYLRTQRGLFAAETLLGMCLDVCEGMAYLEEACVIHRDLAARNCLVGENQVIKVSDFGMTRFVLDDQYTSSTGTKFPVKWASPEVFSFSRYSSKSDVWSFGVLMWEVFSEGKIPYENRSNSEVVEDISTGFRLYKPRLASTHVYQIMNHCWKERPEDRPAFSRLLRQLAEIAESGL

[12] = molecular target: Receptor-type tyrosine-protein kinase FLT3 (Homo sapiens) (UniProt P36888); experiment: Inhibition of Flt3 assessed as activity remaining at 10 uM
[13] = molecular target: Tyrosine-protein kinase Fes/Fps (Homo sapiens) (UniProt P07332); experiment: Inhibition of Fes assessed as activity remaining at 10 uM
[14] = molecular target: Insulin receptor-related protein (Homo sapiens) (UniProt P14616); experiment: Inhibition of IRR assessed as activity remaining at 10 uM
[15] = molecular target: 3-phosphoinositide-dependent protein kinase 1 (Homo sapiens) (UniProt O15530); experiment: Inhibition of PDK1 assessed as activity remaining at 10 uM
[16] = molecular target: RAC-alpha serine/threonine-protein kinase (Homo sapiens) (UniProt P31749); experiment: Inhibition of PKB-alpha assessed as activity remaining at 10 uM
Chain of RAC-alpha serine/threonine-protein kinase (Homo sapiens) (P31749 whole entry): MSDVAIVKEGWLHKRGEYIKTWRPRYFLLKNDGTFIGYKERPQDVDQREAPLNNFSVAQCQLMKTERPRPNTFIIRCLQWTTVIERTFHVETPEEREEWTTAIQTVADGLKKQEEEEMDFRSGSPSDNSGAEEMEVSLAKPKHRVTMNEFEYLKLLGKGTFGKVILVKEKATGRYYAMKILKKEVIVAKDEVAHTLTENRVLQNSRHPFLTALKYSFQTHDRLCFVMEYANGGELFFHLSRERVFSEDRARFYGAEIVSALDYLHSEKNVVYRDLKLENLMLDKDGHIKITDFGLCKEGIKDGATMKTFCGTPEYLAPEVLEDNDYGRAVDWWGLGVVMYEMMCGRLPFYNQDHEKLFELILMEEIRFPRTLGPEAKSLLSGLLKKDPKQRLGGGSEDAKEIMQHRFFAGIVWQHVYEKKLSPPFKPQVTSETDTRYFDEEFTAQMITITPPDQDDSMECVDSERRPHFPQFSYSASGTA

Chain of Receptor-type tyrosine-protein kinase FLT3 (Homo sapiens) (P36888 whole entry): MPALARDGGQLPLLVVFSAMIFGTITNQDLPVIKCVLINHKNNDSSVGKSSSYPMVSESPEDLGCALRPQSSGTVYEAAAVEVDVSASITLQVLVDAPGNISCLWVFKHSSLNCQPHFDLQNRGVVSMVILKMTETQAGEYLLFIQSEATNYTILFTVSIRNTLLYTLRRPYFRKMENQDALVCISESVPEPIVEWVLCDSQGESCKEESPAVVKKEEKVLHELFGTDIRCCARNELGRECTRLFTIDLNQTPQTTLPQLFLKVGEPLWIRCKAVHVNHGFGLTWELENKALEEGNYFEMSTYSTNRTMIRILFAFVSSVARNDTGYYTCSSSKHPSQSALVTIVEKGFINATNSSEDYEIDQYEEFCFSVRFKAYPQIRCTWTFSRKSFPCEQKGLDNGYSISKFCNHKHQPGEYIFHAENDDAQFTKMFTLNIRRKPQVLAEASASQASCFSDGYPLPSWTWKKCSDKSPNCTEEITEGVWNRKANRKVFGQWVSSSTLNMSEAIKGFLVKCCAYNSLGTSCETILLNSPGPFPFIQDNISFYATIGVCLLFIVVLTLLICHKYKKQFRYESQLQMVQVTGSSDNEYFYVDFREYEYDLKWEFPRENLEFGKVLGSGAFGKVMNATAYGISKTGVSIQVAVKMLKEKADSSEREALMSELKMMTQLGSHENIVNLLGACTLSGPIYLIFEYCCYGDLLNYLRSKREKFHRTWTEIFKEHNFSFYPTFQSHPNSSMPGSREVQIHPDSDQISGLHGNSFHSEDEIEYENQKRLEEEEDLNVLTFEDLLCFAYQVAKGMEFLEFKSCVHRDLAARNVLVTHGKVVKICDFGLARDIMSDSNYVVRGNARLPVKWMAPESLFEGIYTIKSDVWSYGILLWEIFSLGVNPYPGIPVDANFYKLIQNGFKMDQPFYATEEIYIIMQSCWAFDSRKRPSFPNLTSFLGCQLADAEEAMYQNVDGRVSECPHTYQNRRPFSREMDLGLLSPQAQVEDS
Chain of Proto-oncogene tyrosine-protein kinase Src (Homo sapiens) (P12931 2-536 limits assumed): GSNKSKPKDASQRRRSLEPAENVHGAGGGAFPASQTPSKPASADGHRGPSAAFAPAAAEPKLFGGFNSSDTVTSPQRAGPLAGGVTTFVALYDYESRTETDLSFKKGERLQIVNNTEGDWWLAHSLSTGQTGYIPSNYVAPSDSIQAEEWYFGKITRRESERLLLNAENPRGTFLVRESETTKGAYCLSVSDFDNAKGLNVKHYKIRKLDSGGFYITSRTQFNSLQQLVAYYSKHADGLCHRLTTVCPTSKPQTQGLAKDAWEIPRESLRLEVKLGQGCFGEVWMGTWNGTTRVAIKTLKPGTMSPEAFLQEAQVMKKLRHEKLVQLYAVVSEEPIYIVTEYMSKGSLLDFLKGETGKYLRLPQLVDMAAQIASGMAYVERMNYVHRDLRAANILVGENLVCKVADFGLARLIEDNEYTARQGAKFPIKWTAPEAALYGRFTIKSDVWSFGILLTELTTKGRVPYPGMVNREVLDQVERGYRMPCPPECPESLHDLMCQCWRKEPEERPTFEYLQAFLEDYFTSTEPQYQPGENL
Chain of Tyrosine-protein kinase Fes/Fps (Homo sapiens) (P07332 whole entry): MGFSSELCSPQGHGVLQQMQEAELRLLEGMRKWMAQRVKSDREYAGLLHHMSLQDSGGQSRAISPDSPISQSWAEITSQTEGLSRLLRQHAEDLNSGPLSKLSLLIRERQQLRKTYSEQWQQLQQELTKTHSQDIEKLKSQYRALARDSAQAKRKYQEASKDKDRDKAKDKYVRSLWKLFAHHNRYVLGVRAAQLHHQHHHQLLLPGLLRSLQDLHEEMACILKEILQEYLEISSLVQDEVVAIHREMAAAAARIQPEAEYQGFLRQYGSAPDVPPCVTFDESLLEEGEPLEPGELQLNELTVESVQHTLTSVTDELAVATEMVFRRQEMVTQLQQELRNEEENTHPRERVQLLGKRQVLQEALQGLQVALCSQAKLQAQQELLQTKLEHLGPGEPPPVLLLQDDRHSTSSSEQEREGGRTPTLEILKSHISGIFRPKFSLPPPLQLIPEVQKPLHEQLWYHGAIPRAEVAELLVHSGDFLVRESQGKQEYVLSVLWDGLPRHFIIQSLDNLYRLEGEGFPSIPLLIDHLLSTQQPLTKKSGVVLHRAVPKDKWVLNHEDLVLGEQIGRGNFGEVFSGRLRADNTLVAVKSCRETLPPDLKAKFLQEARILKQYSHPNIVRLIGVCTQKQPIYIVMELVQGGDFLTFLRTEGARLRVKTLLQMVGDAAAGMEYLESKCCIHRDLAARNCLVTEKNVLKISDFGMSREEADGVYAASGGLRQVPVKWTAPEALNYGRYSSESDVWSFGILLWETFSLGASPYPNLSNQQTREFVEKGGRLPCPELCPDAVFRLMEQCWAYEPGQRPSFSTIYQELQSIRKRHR
Chain of Rho-associated protein kinase 1 (Homo sapiens) (Q13464 2-1354 limits assumed): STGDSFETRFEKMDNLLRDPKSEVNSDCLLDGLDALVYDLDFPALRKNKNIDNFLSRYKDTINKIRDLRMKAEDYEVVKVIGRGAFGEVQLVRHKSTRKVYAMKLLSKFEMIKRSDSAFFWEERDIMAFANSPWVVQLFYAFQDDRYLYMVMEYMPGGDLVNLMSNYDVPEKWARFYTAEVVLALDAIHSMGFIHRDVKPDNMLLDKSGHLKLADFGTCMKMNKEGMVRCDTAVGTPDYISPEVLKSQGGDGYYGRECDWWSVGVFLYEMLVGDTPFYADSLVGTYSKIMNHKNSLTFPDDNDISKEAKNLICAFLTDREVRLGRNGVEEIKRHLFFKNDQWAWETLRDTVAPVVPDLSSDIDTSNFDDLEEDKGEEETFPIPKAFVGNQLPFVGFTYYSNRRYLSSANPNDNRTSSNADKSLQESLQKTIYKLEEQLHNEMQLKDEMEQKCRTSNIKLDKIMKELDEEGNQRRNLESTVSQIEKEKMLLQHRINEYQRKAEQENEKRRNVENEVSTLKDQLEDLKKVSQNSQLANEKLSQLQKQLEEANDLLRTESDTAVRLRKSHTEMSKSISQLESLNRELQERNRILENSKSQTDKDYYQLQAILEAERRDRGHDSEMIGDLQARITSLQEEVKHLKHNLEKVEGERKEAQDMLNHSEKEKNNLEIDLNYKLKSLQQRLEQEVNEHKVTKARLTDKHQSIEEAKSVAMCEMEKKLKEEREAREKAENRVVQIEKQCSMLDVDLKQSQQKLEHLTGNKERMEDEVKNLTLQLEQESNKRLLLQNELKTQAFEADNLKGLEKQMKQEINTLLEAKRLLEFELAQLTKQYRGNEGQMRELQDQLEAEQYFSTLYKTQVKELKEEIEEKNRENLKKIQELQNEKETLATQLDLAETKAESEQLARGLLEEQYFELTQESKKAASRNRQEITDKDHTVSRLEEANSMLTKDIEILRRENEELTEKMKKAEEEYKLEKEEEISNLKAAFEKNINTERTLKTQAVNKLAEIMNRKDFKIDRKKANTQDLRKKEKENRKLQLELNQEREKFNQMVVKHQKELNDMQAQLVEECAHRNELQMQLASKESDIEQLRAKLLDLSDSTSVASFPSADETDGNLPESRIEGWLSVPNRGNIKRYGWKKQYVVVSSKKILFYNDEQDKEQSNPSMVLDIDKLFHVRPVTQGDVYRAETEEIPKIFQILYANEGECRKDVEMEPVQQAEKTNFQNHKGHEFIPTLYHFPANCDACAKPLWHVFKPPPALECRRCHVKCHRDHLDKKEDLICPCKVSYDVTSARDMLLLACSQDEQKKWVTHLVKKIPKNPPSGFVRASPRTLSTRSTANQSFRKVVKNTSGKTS
Chain of 3-phosphoinositide-dependent protein kinase 1 (Homo sapiens) (O15530 whole entry, looked up): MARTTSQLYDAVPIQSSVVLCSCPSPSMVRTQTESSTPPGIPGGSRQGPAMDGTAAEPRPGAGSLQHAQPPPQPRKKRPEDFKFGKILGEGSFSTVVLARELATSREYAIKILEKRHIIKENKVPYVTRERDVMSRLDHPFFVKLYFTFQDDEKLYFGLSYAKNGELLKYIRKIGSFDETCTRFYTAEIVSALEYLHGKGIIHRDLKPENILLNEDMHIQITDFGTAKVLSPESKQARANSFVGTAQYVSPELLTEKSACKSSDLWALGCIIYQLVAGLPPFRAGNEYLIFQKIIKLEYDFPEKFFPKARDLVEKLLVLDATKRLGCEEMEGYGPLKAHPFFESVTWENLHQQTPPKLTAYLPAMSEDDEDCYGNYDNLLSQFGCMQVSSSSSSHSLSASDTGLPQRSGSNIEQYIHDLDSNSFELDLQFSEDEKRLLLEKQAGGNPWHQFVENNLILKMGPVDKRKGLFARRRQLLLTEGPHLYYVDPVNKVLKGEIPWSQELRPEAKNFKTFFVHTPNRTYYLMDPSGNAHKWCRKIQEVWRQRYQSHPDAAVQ

| Activity [1] | Activity [2] | Activity [3] | IC50 [4] | Activity [5] | Activity [6] | Activity [7] | Activity [8] | Activity [9] | Activity [10] | Activity [11] | Activity [12] | Activity [13] | Activity [14] | Activity [15] | Activity [16] | Compound |
| --- | --- | --- | --- | --- | --- | --- | --- | --- | --- | --- | --- | --- | --- | --- | --- | --- |
| 85% | 101% | 96% | 21 nM | 76% | 63% | 96% | 81% | 110% | 73% | 96% | 46% | 88% | 92% | 65% | 92% | O=c1[nH]c2ncc(-c3ccc4[nH]cnc4c3)nc2n1CC1CCCCC1 |
| 93% | 99% | 90% | 30 nM | 89% | 73% | 97% | 81% | 95% | 95% | 90% | 71% | 81% | 89% | 92% | 94% | CC(C)(O)c1ccc(-c2cnc3[nH]c(=O)n(CC4CCCCC4)c3n2)cc1 |
| 94% | 103% | 97% | 2 nM | 101% | 92% | 96% | 90% | 86% | 99% | 99% | 55% | 89% | 90% | 91% | 97% | O=c1[nH]c2ncc(-c3ccc(-c4nc[nH]n4)cc3)nc2n1CC1CCOCC1 |

Source: ChEMBL document CHEMBL1944561, “Discovery and SAR exploration of a novel series of imidazo[4,5-b]pyrazin-2-ones as potent and selective mTOR kinase inhibitors” (Bioorg Med Chem Lett, 2011)
